What all share (assay type): biochemical
The target in one test is CDK6/cycD3 (Homo sapiens (Human), UniProt Q00534). In words: CDK6/cycD3 kinase Mobility Shift Assay. The settings on record: CDK6/cycD3 15 nM, ATP Km 800 μM, 60 min, 28° C. The protocol: (§1) In vitro enzymatic activity of the CDK isoforms CDK2/CycA2, CDK4/CycD3 and CDK6/cycD3 were measured using Mobility Shift Assay that monitors phosphorylation ratio of FAM labelled peptide (Peptide 18 for CDK2/CycA2, Peptide 8 for CDK4/CycD3). CDK2/CycA2 and CDK6/CycD3 were assayed under buffer conditions in the presence of 50 mM HEPES (pH 7.5), 10 mM MgCl2, 0.0015% Brij-35 and 2 mM dithiothreitol; CDK4/CycD3 with buffer condition of 20 mM HEPES (pH 7.5), 10 mM MgCl2, 0.01% Triton X-100 and 2 mM dithiothreitol. Prepare compounds to 50× of the final desired highest inhibitor concentration by 100% DMSO and serial dilution in 3-fold for total of 10 concentrations. For each isoform, dosage of enzyme and substrate are CDK2/CycA2 12 nM, ATP Km 39 μM; CDK4/CycD3 10 nM, ATP Km […]; CDK6/cycD3 15 nM, ATP Km 800 μM. After assay for 60 min, 180 min, 60 min respectively at 28° C., reactions were terminated with stop solution (50 mM EDTA, 0.015% Brij-35, 0.2% Coating Reagent #3 and 100 mM HEPES (pH 7.5)). Collect conversion on Caliper EZ Reader. IC50 values were calculated by fitting the dose-response curves with Xlfit excel add-in version 4.3.1.
CDK6/cycD3, sequence (Q00534 whole entry, species assumed, canonical isoform): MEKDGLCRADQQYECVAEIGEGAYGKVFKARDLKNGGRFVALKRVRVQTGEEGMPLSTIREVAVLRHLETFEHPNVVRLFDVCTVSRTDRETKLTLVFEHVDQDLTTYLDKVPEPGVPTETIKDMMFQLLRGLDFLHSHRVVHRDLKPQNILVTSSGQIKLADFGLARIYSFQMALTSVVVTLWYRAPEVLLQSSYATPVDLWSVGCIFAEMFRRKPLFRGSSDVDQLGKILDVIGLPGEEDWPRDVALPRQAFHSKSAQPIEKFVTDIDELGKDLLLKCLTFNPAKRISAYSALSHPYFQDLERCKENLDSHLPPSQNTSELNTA
CDK6/cycD3, sequence (P30281 whole entry partner, species assumed, canonical isoform): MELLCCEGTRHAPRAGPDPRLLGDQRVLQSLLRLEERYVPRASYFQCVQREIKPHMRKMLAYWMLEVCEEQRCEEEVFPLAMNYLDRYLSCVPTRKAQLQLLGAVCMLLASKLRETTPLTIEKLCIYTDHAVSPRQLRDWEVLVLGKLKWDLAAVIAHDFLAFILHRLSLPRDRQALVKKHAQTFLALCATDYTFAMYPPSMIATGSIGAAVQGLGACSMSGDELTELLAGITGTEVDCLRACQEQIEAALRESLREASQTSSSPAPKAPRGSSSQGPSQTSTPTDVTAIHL

The next test has as its target HDAC-1 (Homo sapiens (Human), UniProt Q13547). In words: HDAC-1 fluorogenic deacetylase assay (Ac-peptide-AMC). To be noted: recombinant, full-length protein, Ac-peptide-AMC substrate; read-out: HDAC1 (IC50). On the procedure:
(§2) The inhibitory effect of compounds on HDAC-1 and HDAC-6 function was determined in vitro using an optimized homogenous assay performed in 384-well plate format. In this assay, the recombinant, full-length HDAC-1, HDAC-2 or HDAC-6 protein (BPS Biosciences) was incubated with Ac-peptide-AMC with concentrations in the Km plot. Reactions were performed in Tris-based assay buffer and were followed for fluorogenic release of 7-amino-4-methylcoumarin from substrate upon deacetylase and trypsin enzymatic activity. Fluorescence measurements were obtained using a multilabel plate reader (Synergy MX with excitation at 355 nm and emission at 460 nm). Data were analyzed on a plate-by-plate basis for the linear range of fluorescence over time. Fit the data in GraphPad Prism V5.0 software to obtain IC50 values using equation (Y=Bottom+(Top-Bottom)/(1+10^((Log IC50−X)*Hill Slope), Y is % inhibition and X is compound concentration).

In another test the target is HDAC-6 (Homo sapiens (Human), UniProt Q9UBN7). In words: HDAC-6 fluorogenic deacetylase assay (Ac-peptide-AMC). The settings on record: read-out: HDAC6 (IC5). The protocol:
as §2

A further test deals with CDK4/CycD3 (Homo sapiens (Human), UniProt P11802). Nature of the test: CDK4/CycD3 kinase Mobility Shift Assay. To be noted: CDK4/CycD3 10 nM, ATP Km 221 μM, 180 min, 28° C. The protocol:
as §1

A further test has as its target CDK2/CycA2 (Homo sapiens (Human), UniProt P24941). Nature of the test: CDK2/CycA2 kinase Mobility Shift Assay. To be noted: CDK2/CycA2 12 nM, ATP Km 39 μM, 60 min, 28° C. On the procedure: as §1
[1] abbreviates: recombinant, full-length protein, Ac-peptide-AMC substrate.

Like-named read-outs stand apart in the source and are kept apart here.

The text below walks through data of patent US12415797B2, “Heterocyclic compound as CDK-HDAC double-channel inhibitor” (Hangzhou Innogate Pharma Co., Ltd., priority 2018, dated 2025).

HDAC-6, sequence (Q9UBN7 whole entry): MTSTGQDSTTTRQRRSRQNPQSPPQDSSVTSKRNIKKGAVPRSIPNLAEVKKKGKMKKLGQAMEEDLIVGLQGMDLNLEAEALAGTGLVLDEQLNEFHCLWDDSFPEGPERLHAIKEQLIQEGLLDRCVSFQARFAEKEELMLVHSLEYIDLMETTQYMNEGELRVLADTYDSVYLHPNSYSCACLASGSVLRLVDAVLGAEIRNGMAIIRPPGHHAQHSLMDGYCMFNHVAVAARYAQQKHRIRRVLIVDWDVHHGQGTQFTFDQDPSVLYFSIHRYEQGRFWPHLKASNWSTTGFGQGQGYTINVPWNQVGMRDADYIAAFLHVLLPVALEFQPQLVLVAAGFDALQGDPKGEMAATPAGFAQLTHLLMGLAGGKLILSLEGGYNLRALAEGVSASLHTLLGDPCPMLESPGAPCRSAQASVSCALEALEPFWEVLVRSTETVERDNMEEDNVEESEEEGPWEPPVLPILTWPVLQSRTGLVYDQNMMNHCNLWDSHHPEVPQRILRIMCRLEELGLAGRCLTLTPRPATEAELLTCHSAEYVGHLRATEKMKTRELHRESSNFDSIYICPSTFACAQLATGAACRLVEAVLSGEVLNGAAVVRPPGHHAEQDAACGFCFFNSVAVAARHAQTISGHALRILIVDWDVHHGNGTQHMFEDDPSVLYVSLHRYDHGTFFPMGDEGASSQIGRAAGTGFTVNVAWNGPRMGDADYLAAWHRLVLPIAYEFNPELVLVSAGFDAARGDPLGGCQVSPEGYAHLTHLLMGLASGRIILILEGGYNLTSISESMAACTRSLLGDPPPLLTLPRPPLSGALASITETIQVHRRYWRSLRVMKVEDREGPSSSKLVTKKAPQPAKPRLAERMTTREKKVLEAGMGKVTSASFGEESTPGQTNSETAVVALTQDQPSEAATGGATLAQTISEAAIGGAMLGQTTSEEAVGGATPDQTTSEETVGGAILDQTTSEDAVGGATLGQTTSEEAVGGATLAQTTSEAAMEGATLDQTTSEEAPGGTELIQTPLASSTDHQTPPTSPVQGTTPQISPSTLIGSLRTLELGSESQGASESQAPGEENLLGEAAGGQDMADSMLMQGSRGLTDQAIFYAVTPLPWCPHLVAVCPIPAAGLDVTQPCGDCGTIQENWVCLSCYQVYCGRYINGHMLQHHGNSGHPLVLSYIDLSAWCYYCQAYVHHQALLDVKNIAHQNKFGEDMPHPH
HDAC-1, sequence (Q13547 whole entry): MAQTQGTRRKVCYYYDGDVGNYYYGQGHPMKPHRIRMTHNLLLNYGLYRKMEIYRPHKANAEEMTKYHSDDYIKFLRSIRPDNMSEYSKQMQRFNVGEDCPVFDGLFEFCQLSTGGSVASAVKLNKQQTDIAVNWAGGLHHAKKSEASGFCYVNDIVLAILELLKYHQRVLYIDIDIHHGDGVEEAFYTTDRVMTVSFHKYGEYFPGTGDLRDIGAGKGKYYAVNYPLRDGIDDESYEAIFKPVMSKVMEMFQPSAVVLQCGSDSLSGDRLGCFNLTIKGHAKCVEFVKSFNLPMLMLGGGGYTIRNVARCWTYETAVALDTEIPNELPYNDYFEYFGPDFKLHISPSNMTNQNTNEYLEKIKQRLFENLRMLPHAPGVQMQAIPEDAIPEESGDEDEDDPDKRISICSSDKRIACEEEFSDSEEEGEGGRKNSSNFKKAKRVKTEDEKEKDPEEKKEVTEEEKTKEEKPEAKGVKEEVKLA
CDK4/CycD3, sequence (P11802 whole entry, species assumed): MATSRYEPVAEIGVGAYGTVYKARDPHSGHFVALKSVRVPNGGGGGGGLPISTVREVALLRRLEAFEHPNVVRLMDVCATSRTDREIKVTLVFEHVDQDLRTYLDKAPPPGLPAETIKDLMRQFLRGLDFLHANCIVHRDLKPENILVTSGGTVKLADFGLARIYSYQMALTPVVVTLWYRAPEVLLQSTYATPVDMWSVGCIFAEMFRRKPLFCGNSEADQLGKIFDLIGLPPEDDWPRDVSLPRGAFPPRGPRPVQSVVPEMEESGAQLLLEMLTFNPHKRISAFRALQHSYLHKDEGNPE
CDK4/CycD3, sequence (P30281 whole entry partner, species assumed): as the sequence (P30281 whole entry partner, species assumed, canonical isoform) above

Take `Cc1nc2c(F)cc(-c3nc(Nc4ccc(N5CCN(CCCCCCC(=O)NO)CC5)cn4)ncc3F)cc2n1C(C)C` [Compound 9, 7-(4-(6-((5-fluoro-4-(4-fluoro-1-isopropyl-2-methyl-1H-benzo[d]imidazol-6-yl)pyrimidin-2-yl)amino)pyridin-3-yl)piperazin-1-yl)-N-hydroxyheptanamide]: the IC50 on CDK6/cycD3 was 10 to 100 nM; on HDAC-1, at least 1000 nM; on HDAC-6, under 10 nM; at CDK4/CycD3, under 10 nM; on CDK2/CycA2 it was 10 to 100 nM.

For the molecule `Cc1nc2c(F)cc(-c3nc(Nc4ccc(N(C)CCCCCCC(=O)NO)cn4)ncc3F)cc2n1C(C)C` [Compound 3, 7-((6-((5-fluoro-4-(4-fluoro-1-isopropyl-2-methyl-1H-benzo[d]imidazol-6-yl)pyrimidin-2-yl)amino)pyridin-3-yl)(methyl)amino)-N-hydroxyheptanamide], the IC50 at CDK6/cycD3 was 10 to 100 nM; on HDAC-1, 10 to 100 nM; on HDAC-6 (setting [1]), 10 to 100 nM; at CDK4/CycD3 it was under 10 nM; on CDK2/CycA2 it was 10 to 100 nM.

As for `Cc1nc2c(F)cc(-c3nc(Nc4ccc(C(=O)NO)cn4)ncc3F)cc2n1C(C)C` [Compound 4, 6-((5-fluoro-4-(4-fluoro-1-isopropyl-2-methyl-1H-benzo[d]imidazol-6-yl)pyrimidin-2-yl)amino)-N-hydroxynicotinamide], the IC50 was 100 to 500 nM on CDK6/cycD3; 100 to 500 nM on HDAC-1; under 10 nM on HDAC-6; under 10 nM at CDK4/CycD3; 100 to 500 nM at CDK2/CycA2.

In the case of `Cc1nc2c(F)cc(-c3nc(Nc4ccc(C(=O)NO)nc4)ncc3F)cc2n1C(C)C` [Compound 11, 5-((5-fluoro-4-(4-fluoro-1-isopropyl-2-methyl-1H-benzo[d]imidazol-6-yl)pyrimidin-2-yl)amino)-N-hydroxypicolinamide], the IC50 is 10 to 100 nM on CDK6/cycD3; at least 1000 nM at HDAC-1; at least 1000 nM on HDAC-6 (setting [1]); under 10 nM on CDK4/CycD3; under 10 nM on CDK2/CycA2.

For `Cc1nc2c(F)cc(-c3nc(Nc4ccc(/C=C/C(=O)NO)cn4)ncc3F)cc2n1C(C)C` [Compound 5, (E)-3-(6-((5-fluoro-4-(4-fluoro-1-isopropyl-2-methyl-1H-benzo[d]imidazol-6-yl)pyrimidin-2-yl)amino)pyridin-3-yl)-N-hydroxyacrylamide], the IC50 at CDK6/cycD3 is 100 to 500 nM; on HDAC-1, at least 1000 nM; on HDAC-6 (setting [1]), 10 to 100 nM; at CDK4/CycD3 it was under 10 nM; on CDK2/CycA2, 10 to 100 nM.

Take `Cc1nc2c(F)cc(-c3nc(Nc4ccc(N(C)Cc5ccc(C(=O)NO)cc5)cn4)ncc3F)cc2n1C(C)C` [Compound 6, 4-(((6-((5-fluoro-4-(4-fluoro-1-isopropyl-2-methyl-1H-benzo[d]imidazol-6-yl)pyrimidin-2-yl)amino)pyridin-3-yl)(methyl)amino)methyl)-N-hydroxybenzamide]: the IC50 is 10 to 100 nM on CDK6/cycD3; 100 to 500 nM on HDAC-1; 10 to 100 nM at HDAC-6 (setting [1]); under 10 nM on CDK4/CycD3; under 10 nM on CDK2/CycA2.

For `Cc1nc2c(F)cc(-c3nc(Nc4ccc(N5CCC(C(=O)NO)CC5)cn4)ncc3F)cc2n1C(C)C` [Compound 15, 1-(6-((5-fluoro-4-(4-fluoro-1-isopropyl-2-methyl-1H-benzo[d]imidazol-6-yl)pyrimidin-2-yl)amino)pyridin-3-yl)-N-hydroxypiperidine-4-carboxamide], the IC50 at CDK6/cycD3 is 10 to 100 nM; at HDAC-1 it was at least 1000 nM; at HDAC-6 (setting [1]), 100 to 500 nM; at CDK4/CycD3, under 10 nM; at CDK2/CycA2 it was 10 to 100 nM.

For the molecule `Cc1nc2c(F)cc(-c3nc(Nc4ccc(-c5ccc(C(=O)NO)cn5)cn4)ncc3F)cc2n1C(C)C` [Compound 16, 6′-((5-fluoro-4-(4-fluoro-1-isopropyl-2-methyl-1H-benzo[d]imidazol-6-yl)pyrimidin-2-yl)amino)-N-hydroxy-[2,3′-bipyridine]-5-carboxamide], the IC50 was 10 to 100 nM on CDK6/cycD3; at least 1000 nM on HDAC-1; 100 to 500 nM at HDAC-6 (setting [1]); under 10 nM at CDK4/CycD3; under 10 nM on CDK2/CycA2.

With `Cc1nc2c(F)cc(-c3nc(Nc4ccc(C#CC(=O)NO)cn4)ncc3F)cc2n1C(C)C` [Compound 17, 3-(6-((5-fluoro-4-(4-fluoro-1-isopropyl-2-methyl-1H-benzo[d]imidazol-6-yl)pyrimidin-2-yl)amino)pyridin-3-yl)-N-hydroxypropiolamide], the IC50 at CDK4/CycD3 is under 10 nM.

As for `Cc1nc2c(F)cc(-c3nc(Nc4ccc(N5CCN(Cc6ccc(C(=O)NO)cc6)CC5)cn4)ncc3F)cc2n1C(C)C` [Compound 8, 4-((4-(6-((5-fluoro-4-(4-fluoro-1-isopropyl-2-methyl-1H-benzo[d]imidazol-6-yl)pyrimidin-2-yl)amino)pyridin-3-yl)piperazin-1-yl)methyl)-N-hydroxybenzamide], the IC50 was 10 to 100 nM on CDK6/cycD3; 10 to 100 nM on HDAC-1; under 10 nM on HDAC-6; under 10 nM at CDK4/CycD3; 10 to 100 nM at CDK2/CycA2.

With `Cc1nc2c(F)cc(-c3nc(Nc4ccc(N5CCN(C(=O)CCCCCCC(=O)NO)CC5)cn4)ncc3F)cc2n1C(C)C` [Compound 10, 8-(4-(6-((5-fluoro-4-(4-fluoro-1-isopropyl-2-methyl-1H-benzo[d]imidazol-6-yl)pyrimidin-2-yl)amino)pyridin-3-yl)piperazin-1-yl)-N-hydroxy-8-oxooctanamide], the IC50 on CDK6/cycD3 was under 10 nM; at HDAC-1, 100 to 500 nM; on HDAC-6 it was under 10 nM; at CDK4/CycD3, under 10 nM; on CDK2/CycA2, 10 to 100 nM.

For the molecule `Cc1nc2c(F)cc(-c3nc(Nc4ccc(N5CCN(CCC(=O)NO)CC5)cn4)ncc3F)cc2n1C(C)C` [Compound 14, 3-(4-(6-((5-fluoro-4-(4-fluoro-1-isopropyl-2-methyl-1H-benzo[d]imidazol-6-yl)pyrimidin-2-yl)amino)pyridin-3-yl)piperazin-1-yl)-N-hydroxypropanamide], the IC50 on CDK6/cycD3 is 10 to 100 nM; on HDAC-1 it was at least 1000 nM; at HDAC-6 (setting [1]), 500 to 1000 nM; at CDK4/CycD3, under 10 nM; at CDK2/CycA2, 10 to 100 nM.

As to `Cc1nc2c(F)cc(-c3nc(Nc4cc(C(=O)NO)ccn4)ncc3F)cc2n1C(C)C` [Compound 12, 2-((5-fluoro-4-(4-fluoro-1-isopropyl-2-methyl-1H-benzo[d]imidazol-6-yl)pyrimidin-2-yl)amino)-N-hydroxyisonicotinamide], the IC50 on CDK6/cycD3 is at least 1000 nM; on HDAC-1, 100 to 500 nM; at HDAC-6 (setting [1]), 10 to 100 nM; on CDK4/CycD3, 10 to 100 nM; on CDK2/CycA2, 10 to 100 nM.

Take `Cc1nc2c(F)cc(-c3nc(Nc4ccc(N(C)CCN(C)c5ncc(C(=O)NO)cn5)cn4)ncc3F)cc2n1C(C)C` [Compound 2, 2-((2-((6-((5-fluoro-4-(4-fluoro-1-isopropyl-2-methyl-1H-benzo[d]imidazol-6-yl)pyrimidin-2-yl)amino)pyridin-3-yl)(methyl)amino)ethyl)(methyl)amino)-N-hydroxypyrimidine-5-carboxamide]: the IC50 on CDK6/cycD3 was 10 to 100 nM; on HDAC-1, under 10 nM; on HDAC-6 (setting [1]) it was 10 to 100 nM; on CDK4/CycD3, under 10 nM; on CDK2/CycA2 it was 100 to 500 nM.

In the case of `Cc1nc2c(F)cc(-c3nc(Nc4ccc(CN5CCN(CCCCCCC(=O)NO)CC5)cn4)ncc3F)cc2n1C(C)C` [Compound 1, 7-(4-((6-((5-fluoro-4-(4-fluoro-1-isopropyl-2-methyl-1H-benzo[d]imidazol-6-yl)pyrimidin-2-yl)amino)pyridin-3-yl)methyl)piperazin-1-yl)-N-hydroxyheptanamide], the IC50 on CDK6/cycD3 is 10 to 100 nM; on HDAC-1, 100 to 500 nM; on HDAC-6 (setting [1]), 10 to 100 nM; on CDK4/CycD3 it was under 10 nM; at CDK2/CycA2, 10 to 100 nM.
